{"source": "patent US4761398A", "about": "“Method of inducing birds to molt” (Embrex, Inc., priority 1986, dated 1988)", "key": {"[1]": {"test_system": "single combed White Leghorn hens", "experiment": "Induction of molt by LHRH receptor ligand", "format": "in vivo", "conditions": "all treated groups, 25 micrograms/day", "method": "(§1) After the two week pre-molt adjustment period, the hens were randomly assigned to each of eight different groups. These treatment groups were as follows: (1) control, (2) forced molt, (3) chemical molt-injected, (4) vehicle control-injected, (5) chemical molt-microcapsules A, (6) vehicle control-microcapsules A, (7) chemical molt-microcapsules B, and (8) vehicle control-microcapsules B.\n(§2) The hens then received a seven day pre-molt treatment of a 24 hour light, zero hour dark photoperiod. On day 14 of the experiment the photoperiod was then reduced to natural day length for all treatments. Feed was made available ad libitum for all groups except the forced molt group. The forced molt group was deprived of food, but not of water, until a 30% body weight loss occurred (10 days of fasting).\n[D-Trp^6 ]LHRH was used as the LHRH receptor ligand for the chemical molt groups. The \"chemical molt-injected\" group received intramuscular (breast) injections of 25 micrograms/day of [D-Trp^6 ]LHRH for 10 consecutive days beginning on day 14. Alternate pectoral (breast) areas were injected each day. […]\nMicrocapsules were suspended in disposable syringes in vehicle containing 2% carboxymethyl cellulose and 1% \"TWEEN 20\" in water. After thoroughly mixing the suspension, aliquots calculated to have released a dose of 25 micrograms/day for 15 consecutive days were injected into the breast muscle of the hens. […]"}, "[2]": {"test_system": "single combed White Leghorn hens", "experiment": "Hen-day egg production", "format": "in vivo", "method": "During the experiment, two birds were assigned to each cage (12\"×18\"). The hens were maintained in their cages for two weeks prior to the molt. They received a 17 hour light: 7 hour dark photoperiod throughout this phase of the experiment. During this time, the following parameters were measured:(a) body weight (weekly); (b) feed consumption (all hens received a common layer ration, and the feed consumed during this two week period was measured); (C) production records (daily); and (d), total egg weight, egg shell weight, and egg specific gravity (measured on three consecutive days each week). Serum samples were taken once, from 10 randomly selected hens from each treatment group, and saved for future study.\nas §1, §2\n[D-Trp^6 ]LHRH was used as the LHRH receptor ligand for the chemical molt groups. The \"chemical molt-injected\" group received intramuscular (breast) injections of 25 micrograms/day of [D-Trp^6 ]LHRH for 10 consecutive days beginning on day 14. Alternate pectoral (breast) areas were injected each day. The \"chemical molt-microcapsule\" groups received a single intramuscular (breast) injection of microencapsulated [D-Trp^6 ]LHRH on day zero. This preparation of microcapsules provided a controlled release of 25 micrograms [D-Trp^6 ]LHRH per day for 15 consecutive days.\nOn day 14, the microcapsule injected groups received intramuscular injections of lactide/glycolide copolymer microcapsules which had [D-Trp^6 ]LHRH incorporated therein. The ligand-containing microcapsules administered the \"Microcapsules A\" group were prepared and supplied by Debiopharm (Lausanne, Switzerland). These microcapsules were prepared by a phase-separation process to produce a free-flowing powder of spherical particles consisting of [D-Trp^6 ]LHRH (2% wt/wt) distributed within a polymeric matrix of 53:47(mol %) poly(DL-lactide-co-glycolide) (98% wt/wt) with an inherent viscosity of 0.7 dl/g. The microcapsules were 50 micrometers or less in diameter. […] Photomicrographs of similar microcapsules are presented in T. W. Redding, et al., Proc. Natl. Acad. Sci. U.S.A., 81, 5845 (Sept. 1984).\nMicrocapsules were suspended in disposable syringes in vehicle containing 2% carboxymethyl cellulose and 1% \"TWEEN 20\" in water. After thoroughly mixing the suspension, aliquots calculated to have released a dose of 25 micrograms/day for 15 consecutive days were injected into the breast muscle of the hens. We weighed the microcapsules directly into disposable 3 ml syringes. The plunger of a plugged syringe containing microcapsules (without vehicle) was pulled back to the 1.5-2 cc mark. The hub of the syringe was then placed against a vortex mixer and the syringe vortexed rapidly for about 20 seconds, or until most of the clumps of microbeads were broken and distributed along the barrel of the syringe. An 18 gauge needle was then attached and 0.7 to 1.0 ml of […] injection vehicle was drawn into the syringe. With the needle in an upward position, the syringe was again placed against a vortex mixer and vortexed rapidly for 20 seconds, or until a suspension of microbeads was formed in the vehicle. […]"}}}
{"substance": "[D-Trp^6 ]LHRH [D-Trp^6 --LHRH]", "values": [{"measurement": "induction of molt", "setting": "[1]", "result": "induced to molt"}, {"measurement": "HEN-DAY EGG PRODUCTION Reported By Weeks", "setting": "[2]; listed as Day 5", "result": 61.508, "unit": "%"}, {"measurement": "HEN-DAY EGG PRODUCTION Reported By Weeks", "setting": "[2]; listed as Day 12", "result": 26.984, "unit": "%"}, {"measurement": "HEN-DAY EGG PRODUCTION Reported By Weeks", "setting": "[2]; listed as Day 17", "result": 4.683, "unit": "%"}, {"measurement": "HEN-DAY EGG PRODUCTION Reported By Weeks", "setting": "[2]; listed as Day 22", "result": 7.619, "unit": "%"}, {"measurement": "HEN-DAY EGG PRODUCTION Reported By Weeks", "setting": "[2]; listed as Day 27", "result": 30.000, "unit": "%"}, {"measurement": "HEN-DAY EGG PRODUCTION Reported By Weeks", "setting": "[2]; listed as Day 33", "result": 58.095, "unit": "%"}, {"measurement": "HEN-DAY EGG PRODUCTION Reported By Weeks", "setting": "[2]; listed as Day 40", "result": 63.333, "unit": "%"}, {"measurement": "HEN-DAY EGG PRODUCTION Reported By Weeks", "setting": "[2]; listed as Day 47", "result": 67.143, "unit": "%"}, {"measurement": "HEN-DAY EGG PRODUCTION Reported By Weeks", "setting": "[2]; listed as Day 54", "result": 76.667, "unit": "%"}, {"measurement": "HEN-DAY EGG PRODUCTION Reported By Weeks", "setting": "[2]; listed as Day 61", "result": 80.000, "unit": "%"}, {"measurement": "HEN-DAY EGG PRODUCTION Reported By Weeks", "setting": "[2]; listed as Day 75", "result": 76.667, "unit": "%"}, {"measurement": "HEN-DAY EGG PRODUCTION Reported By Weeks", "setting": "[2]; listed as Day 82", "result": 73.889, "unit": "%"}, {"measurement": "HEN-DAY EGG PRODUCTION Reported By Weeks", "setting": "[2]; listed as Day Zero", "result": 63.889, "unit": "%"}]}
